Results on 2 compounds are retold here after US10576057B2, “Methods for treating muscle wasting and degeneration diseases” (NEWTREE CO., LTD., priority 2015, dated 2020).

The subject of one experiment is Wistar rats. Kind of experiment: Muscle mass in TNF-α-induced muscular atrophy animal model. The class given is in vivo. Particulars: for increase in weight of muscle: 300 mg/kg body weight, 8 weeks, vs control group, p<0.01; for Average calf muscle weight: TNF-α-induced atrophy, 300 mg/kg body weight once a day for 8 weeks, right calf. Here is the method:
Five-week-old Wistar rats were adapted for 1 week and 100 ng/g of TNF-α was supplied for 2 weeks to induce muscular atrophy. Then, groups were randomly assigned on the basis of body weight and divided into five groups of 8 rats per each group. 500 mg/kg body weight of the ethanol extract of Mori Cortex Radicis prepared in Example 1-2, 500 mg/kg body weight of the hot-water extract of Mori Cortex Radicis prepared in Example 1-5, 300 mg/kg body weight of the morusin prepared in Example 2-1, and 300 mg/kg body weight of the kuwanon G prepared in Example 2-2 were suspended in 0.25% carboxymethylcellulose, respectively, followed by their administration on experimental groups once a day for 8 weeks at regular time. A control group was administered with TNF-α suspended in the same amount of 0.25% carboxymethyl cellulose ingested by the experimental groups.
After 8 weeks of administration, the muscles under the right calf were excised and weighed with microbalance (Mettler PE 160, USA).

In the next experiment the test system is myogenin. Put plainly: myogenin mRNA expression by RT-PCR in L6 muscle cells. The class given is cell-based. To be noted: 6 days. Here is the method: (§1) Muscle cells, L6 myoblasts (ATCC) were added to a 6-well plate at 2×10^5 cells/ml together with DMEM (Hyclone) containing 10% FBS (Hyclone). When the cell density reached about 80 to 85%, the medium in the wells was removed. […] Meanwhile, a group treated with 0.01% DMSO instead of the sample was used as a control group. This procedure was carried out for 6 days in two days to differentiate and total RNA was isolated using TRIzol reagent (Invitrogen. Carlsbad, Calif., USA). The isolated total RNA was quantified using NanoDrop 1000 (Thermo Fisher Scientific Inc., MA, USA). Quantified 16 μL of RNA was synthesized into cDNA using Reverse Transcriptase Premix (ELPIS-Biotech) and PCR machine (Gene Amp PCR System 2700: Applied Biosystems, MA, USA) at 42° C. for 55 minutes and 70° C. for 15 minutes. 4 μL out of 16 μL cDNA was amplified by PCR using the following specific primers (Bioneer, Daejeon, Republic of Korea) and PCR premix (ELPIS-Biotech). PCR was performed by repeating 30 cycles of 95° C. for 30 seconds, 60° C. for 1 minute, and 72° C. for 1 minute.
(§2) PCR-amplified cDNA was separated by electrophoresis on 1.5% agarose gel and cDNA band was identified using G:BOX EF imaging system (Syngene).
(§3) L6 myoblast (ATCC) were cultured in the same manner as in Example 7. […]

A further experiment has as its system MyoD. Kind of experiment: MyoD mRNA expression by RT-PCR in L6 muscle cells. The class given is cell-based. Particulars: 6 days. Here is the method:
as §1, §2, §3

The next experiment has as its system atrogin-1. Kind of experiment: atrogin-1 mRNA expression by RT-PCR in TNF-α-treated L6 muscle cells. The class given is cell-based. Particulars: differentiated L6 muscle cells, 50 ng/mL TNF-α. Here is the method: L6 myoblast (ATCC) was added to a 6-well plate at 2×10^5 cells/ml together with DMEM (Hyclone) containing 10% FBS (Hyclone). When the cell density reached about 80% to 85%, the medium in the wells was removed and myotube differentiation was induced by treating the cells with DMEM (Hyclone) containing 2% HS (Hyclone). The medium was replaced with fresh medium every two days and the differentiation was carried out for a total of 6 days. After differentiation, 0.1 μM and 1 μM of morusin prepared in Example 2-1 were respectively dissolved in DMEM (Hyclone) containing 50 ng/mL tumor necrosis factor alph (TNF-α; PeproTech, Rocky Hills, N.J., USA), followed by their treatment on the cells. After 6 hours, total RNA was isolated using TRIzol reagent (Invitrogen). The isolated total RNA was quantified using NanoDrop 1000 (Thermo Fisher Scientific Inc.). The quantified 16 μL of RNA was synthesized into cDNA using Reverse Transcriptase Premix (ELPIS-Biotech) and PCR machine (Gene Amp PCR System 2700: Applied Biosystems) at 42° C. for 55 minutes and at 70° C. for 15 minutes. The PCR was performed by repeating 30 cycles at 95° C. for 30 seconds, at 60° C. for 1 minute and at 72° C. for 1 minute with 4 μl of 16 μl cDNA, the following specific primers (Bioneer), and PCR premix (ELPIS-Biotech): […]

In the case of `CC(C)=CCc1c(-c2ccc(O)cc2O)oc2c([C@H]3C=C(C)C[C@@H](c4ccc(O)cc4O)[C@@H]3C(=O)c3ccc(O)cc3O)c(O)cc(O)c2c1=O` [Kuwanon G, 8-[(1S,5R,6S)-6-(2,4-Dihydroxybenzoyl)-5-(2,4-dihydroxyphenyl)-3-methyl-2-cyclohexen-1-yl]-2-(2,4-dihydroxyphenyl)-5,7-dihydroxy-3-(3-methyl-2-buten-1-yl)-4H-chromen-4-one], in the experiment on Wistar rats, the “increase in weight of muscle” value is 22.60% and the “Average calf muscle weight” value is on record as 537 ± 15.2 mg. The “expression of myogenin mRNA” value in the experiment with myogenin (1 μM and 5 μM) is “increased”. Moreover, the “expression of MyoD mRNA” value in the experiment with MyoD (1 μM and 5 μM) is “increased”. Besides, in the experiment on atrogin-1 (concentration not given), the “mRNA expression of atrogin-1” value is recorded as “decreased”.

On to `CC(C)=CCc1c(-c2ccc(O)cc2O)oc2c3c(cc(O)c2c1=O)OC(C)(C)C=C3` [Morusin, 2-(2,4-Dihydroxyphenyl)-5-hydroxy-8,8-dimethyl-3-(3-methyl-2-buten-1-yl)-4H,8H-benzo[1,2-b:3,4-b′]dipyran-4-one], for which, in the experiment on Wistar rats, the “increase in weight of muscle” value is reported as 23.97% and the “Average calf muscle weight” value is 543 ± 32.9 mg. In the experiment on myogenin (0.1 and 1 μM), the “expression of myogenin mRNA” value is “increased”. Also, the “expression of MyoD mRNA” value with MyoD (0.1 and 1 μM) is given as “increased”. The “mRNA expression of atrogin-1” value in the experiment with atrogin-1 (0.1 μM and 1 μM, 6 hours) was “decreased”.
